Source: ChEMBL document CHEMBL4483862, “Open-source discovery of chemical leads for next-generation chemoprotective antimalarials” (2018)

Tested on: Plasmodium berghei
Assay: Luciferase/luciferin-expressing antifolate-resistant parasites were used to infect a culture of HepG2 cells that were pre-incubated with compounds. Infected hepatocytes emit light due to the luciferase reaction. Assay results are presented as the percent inhibition of light emission compared to control. […]
Type: functional
Settings: sporozoite; for IC90: read-out: LUCIFERASE INFECTION ASSAY - IC90
[1] = PBLUC_HILL_SLOPE 1, PBLUC_R_SQUARED 0.439, read-out: LUCIFERASE INFECTION ASSAY - IC50

SMILES	IC90 [µM]	also measured
Cc1ccc2c(Cl)cc(Cl)c(OCC(=O)N(C(C)C)C(C)C)c2n1	> 10	IC50 (PBLUC_HILL_SLOPE 0.984, PBLUC_R_SQUARED 0.0595, read-out: LUCIFERASE INFECTION ASSAY - IC50): > 10 µM
CC(=O)c1c(C)[nH]c(C(=O)OCCOc2ccccc2)c1C	> 10	IC50 (PBLUC_HILL_SLOPE 1.04, PBLUC_R_SQUARED 0.638, read-out: LUCIFERASE INFECTION ASSAY - IC50): 1.81 µM
CC(C)(C)NCc1cc(Cl)ccc1OCc1ccccc1F	> 9.21	IC50 (PBLUC_HILL_SLOPE 1.1, PBLUC_R_SQUARED 0.254, read-out: LUCIFERASE INFECTION ASSAY - IC50): 4.67 µM
CCOCc1c(C(=O)Nc2ccccc2N2CCN(C)CC2)oc2ccccc12	7.05	IC50 (PBLUC_HILL_SLOPE 0.969, 2.85, PBLUC_R_SQUARED 0.516, 0.696, read-out: LUCIFERASE INFECTION ASSAY - IC50): 2.83 µM
CC(C)c1ccccc1NC(=O)Nc1nc(C(N)Cc2ccc(C(F)(F)F)cc2)cs1 (configuration not stated)	> 7.36	IC50 (PBLUC_HILL_SLOPE 1.06, PBLUC_R_SQUARED 0.663, read-out: LUCIFERASE INFECTION ASSAY - IC50): 1.89 µM
NC(Cc1ccc(Cl)cc1)c1csc(Nc2nncc3ccccc23)n1 (configuration not stated)	> 8.64	IC50 (PBLUC_HILL_SLOPE 1.01, PBLUC_R_SQUARED 0.151, read-out: LUCIFERASE INFECTION ASSAY - IC50): 5.44 µM
Cc1nn(Cc2ccc(C(=O)NC3CC3)cc2)c(C)c1[N+](=O)[O-]	> 10	IC50 (PBLUC_HILL_SLOPE 1.06, PBLUC_R_SQUARED 0.0833, read-out: LUCIFERASE INFECTION ASSAY - IC50): > 10 µM
NC(=O)c1nc[nH]c1NC(=O)Cc1ccc(-c2ccccc2)cc1	> 10	IC50 (PBLUC_HILL_SLOPE 1, PBLUC_R_SQUARED 0.17, read-out: LUCIFERASE INFECTION ASSAY - IC50): > 10 µM
CC(=O)c1ccc(NC(=O)CCn2nnc(-c3ccc(C(C)C)cc3)n2)cc1	> 10	IC50 [1]: 6.32 µM
CCOC(=O)c1cc(-c2ccc(OC)cc2)nn1-c1cccc(C)c1	> 10	IC50 (PBLUC_HILL_SLOPE 0.992, PBLUC_R_SQUARED 0.815, read-out: LUCIFERASE INFECTION ASSAY - IC50): > 10 µM
S=C(Nc1ccc(Oc2ccccc2)cc1)Nc1cccc2cnccc12	> 10	IC50 (PBLUC_HILL_SLOPE 1.05, PBLUC_R_SQUARED 0.612, read-out: LUCIFERASE INFECTION ASSAY - IC50): 4.86 µM
Cc1ccccc1-n1nnc(C(=O)Nc2cccc(Br)c2)c1N	4.24	IC50 (PBLUC_HILL_SLOPE 0.945, PBLUC_R_SQUARED 0.824, read-out: LUCIFERASE INFECTION ASSAY - IC50): 0.414 µM
Cc1ccc2nc3ccccc3c(N3CCN(C(=O)c4ccccc4)CC3)c2c1	3.42	IC50 (PBLUC_HILL_SLOPE 1, PBLUC_R_SQUARED 0.729, read-out: LUCIFERASE INFECTION ASSAY - IC50): 0.384 µM
CCCn1c(=O)n(CC(=O)Nc2ccc(C)c(C)c2)c(=O)c2c1nc(C(F)(F)F)n2CCOC	> 10	IC50 (PBLUC_HILL_SLOPE 0.949, PBLUC_R_SQUARED 0.63, read-out: LUCIFERASE INFECTION ASSAY - IC50): 1.57 µM
Cc1nn(-c2ccccc2)c2c1C1(C(=O)Nc3ccccc31)N1N=NN(c3ccccc3)C1=N2 (configuration not stated)	> 10	IC50 (PBLUC_HILL_SLOPE 0.947, PBLUC_R_SQUARED 0.0755, read-out: LUCIFERASE INFECTION ASSAY - IC50): > 10 µM
COc1cc2c(cc1NC(=O)C(C)N1CCC(C(N)=O)CC1)oc1ccccc12 (configuration not stated)	> 10	IC50 (PBLUC_HILL_SLOPE 1.06, PBLUC_R_SQUARED 0.647, read-out: LUCIFERASE INFECTION ASSAY - IC50): 1.32 µM
CC1(C)CC2CC(C)(CN2C(=O)CSc2nnc(-c3cc(-c4cccs4)nc4ccccc34)o2)C1 (configuration not stated)	> 10	IC50 (PBLUC_HILL_SLOPE 1.06, PBLUC_R_SQUARED 0.333, read-out: LUCIFERASE INFECTION ASSAY - IC50): > 10 µM
Cc1ccccc1-c1cn2c(-c3cccc(C(=O)N4CCN(C)CC4)c3)cnc2cn1	> 8.02	IC50 (PBLUC_HILL_SLOPE 1.06, PBLUC_R_SQUARED 0.743, read-out: LUCIFERASE INFECTION ASSAY - IC50): 3.76 µM
COc1ccccc1N1CCN(c2oc(-c3ccccc3Cl)nc2S(=O)(=O)c2ccc(C)cc2)CC1	> 10	IC50 (PBLUC_HILL_SLOPE 1.06, PBLUC_R_SQUARED 0.3, read-out: LUCIFERASE INFECTION ASSAY - IC50): > 10 µM
Cc1csc(SCC(=O)c2cc(C)n(-c3ccccc3)c2C)n1	0.219	IC50 (PBLUC_HILL_SLOPE 0.985, PBLUC_R_SQUARED 0.172, read-out: LUCIFERASE INFECTION ASSAY - IC50): 0.0235 µM
Cc1cc(NC(=O)N2CCN(Cc3sc4ccccc4c3Cl)CC2)no1	1.17	IC50 (PBLUC_HILL_SLOPE 1.04, PBLUC_R_SQUARED 0.858, read-out: LUCIFERASE INFECTION ASSAY - IC50): 0.141 µM

SMILES	IC90 [µM]	also measured
CS(=O)(=O)N1CCCc2cc(C(=O)Nc3[nH]nc4ccccc34)ccc21	> 10	IC50 (PBLUC_HILL_SLOPE 1.05, PBLUC_R_SQUARED 0.487, read-out: LUCIFERASE INFECTION ASSAY - IC50): 4.21 µM
Clc1ccc(-c2csc(-c3nnc4n3-c3ccccc3SC4)n2)s1	> 10	IC50 [1]: 6.32 µM
CN1CCN(c2ccccc2NC(=O)c2cccc(Oc3ccccc3)c2)CC1	5.25	IC50 (PBLUC_HILL_SLOPE 1.09, PBLUC_R_SQUARED 0.715, read-out: LUCIFERASE INFECTION ASSAY - IC50): 0.704 µM
CC1CC(C)CN(C(=O)CN2CCN(CC(=O)Nc3ccc(N4CCCCCC4)cc3)CC2)C1 (configuration not stated)	> 10	IC50 (PBLUC_HILL_SLOPE 1.09, PBLUC_R_SQUARED 0.619, read-out: LUCIFERASE INFECTION ASSAY - IC50): 3.56 µM
S=c1sc(Nc2ccc(Oc3ccccc3)cc2)nn1CN1CCN(c2ncccn2)CC1	> 10	IC50 (PBLUC_HILL_SLOPE 0.972, PBLUC_R_SQUARED 0.697, read-out: LUCIFERASE INFECTION ASSAY - IC50): 3.61 µM
CCn1c(NC(=O)c2csc(Br)c2)nc2ccccc21	> 10	IC50 (PBLUC_HILL_SLOPE 0.956, PBLUC_R_SQUARED 0.162, read-out: LUCIFERASE INFECTION ASSAY - IC50): 5.44 µM
Cc1ccsc1C(O)c1nnc(N2CCCCC2)s1 (configuration not stated)	6.49	IC50 (PBLUC_HILL_SLOPE 1.05, PBLUC_R_SQUARED 0.691, read-out: LUCIFERASE INFECTION ASSAY - IC50): 0.794 µM
CC(NC(C)c1ccc(Cl)cc1)C(=O)Nc1sccc1C(N)=O (configuration not stated)	> 10	IC50 (PBLUC_HILL_SLOPE 1.06, PBLUC_R_SQUARED 0.69, read-out: LUCIFERASE INFECTION ASSAY - IC50): 2.14 µM
C=C1SC(Nc2cc(C)cc(C)c2)=NC1(C)C	> 13.4	IC50 (PBLUC_HILL_SLOPE 0.95, PBLUC_R_SQUARED 0.559, read-out: LUCIFERASE INFECTION ASSAY - IC50): > 13.4 µM
OC(c1ccc(Nc2nc3ccccc3s2)cc1)(C(F)(F)F)C(F)(F)F	9.74	IC50 (PBLUC_HILL_SLOPE 1.04, 1.87, PBLUC_R_SQUARED 0.121, 0.671, read-out: LUCIFERASE INFECTION ASSAY - IC50): 5.01 µM
O=C(CCOc1ccc(F)cc1)Nc1cc(Cl)cc(Cl)c1	> 10.1	IC50 (PBLUC_HILL_SLOPE 0.967, PBLUC_R_SQUARED 0.399, read-out: LUCIFERASE INFECTION ASSAY - IC50): > 10.1 µM
Cc1ccc(S(=O)(=O)N2Cc3ccccc3C(C)CC23CCCCC3)cc1 (configuration not stated)	> 8.6	IC50 (PBLUC_HILL_SLOPE 1.1, PBLUC_R_SQUARED 0.205, read-out: LUCIFERASE INFECTION ASSAY - IC50): > 8.6 µM
Cn1c(Oc2cccc3c2OC(C)(C)C3)c(C#N)c(=O)n(C)c1=O	0.188	IC50 (PBLUC_HILL_SLOPE 0.981, PBLUC_R_SQUARED 0.556, read-out: LUCIFERASE INFECTION ASSAY - IC50): 0.02 µM
Cc1cc(C(=O)CN(C)S(=O)(=O)c2cccs2)c(C)n1-c1ccccn1	> 10	IC50 (PBLUC_HILL_SLOPE 0.948, PBLUC_R_SQUARED 0.586, read-out: LUCIFERASE INFECTION ASSAY - IC50): 2.02 µM
O=C(Nc1ccc(F)cc1)Nc1cnn(-c2ccc(Cl)cc2)c1C(F)(F)F	2.1	IC50 (PBLUC_HILL_SLOPE 1.06, PBLUC_R_SQUARED 0.652, read-out: LUCIFERASE INFECTION ASSAY - IC50): 0.266 µM
CC(=O)N1CCN(C(=O)CCC(=O)Nc2nc3ccccc3s2)CC1	> 10	IC50 (PBLUC_HILL_SLOPE 1.05, PBLUC_R_SQUARED 0.239, read-out: LUCIFERASE INFECTION ASSAY - IC50): > 10 µM
CN(c1ccccc1)c1nnc(C(O)c2ccc3ccccc3c2)s1 (configuration not stated)	> 10	IC50 (PBLUC_HILL_SLOPE 0.974, PBLUC_R_SQUARED 0.604, read-out: LUCIFERASE INFECTION ASSAY - IC50): 3.52 µM
Cc1ccc(/C=C/C(=O)NC2=NCCS2)c(Br)c1	> 10	IC50 (PBLUC_HILL_SLOPE 0.976, PBLUC_R_SQUARED 0.447, read-out: LUCIFERASE INFECTION ASSAY - IC50): 3.48 µM
O=C(COc1ccc2[nH]c3ccccc3c(=O)c2c1)Nc1ccccc1Cc1ccccc1	0.11	IC50 (PBLUC_HILL_SLOPE 1.04, PBLUC_R_SQUARED 0.893, read-out: LUCIFERASE INFECTION ASSAY - IC50): 0.0133 µM
OC(CNC1CCN(Cc2ccccc2)CC1)COc1ccc(OC(F)(F)F)cc1 (configuration not stated)	> 7.77	IC50 (PBLUC_HILL_SLOPE 0.955, PBLUC_R_SQUARED 0.217, read-out: LUCIFERASE INFECTION ASSAY - IC50): > 7.77 µM
